Experimental findings from EP0671413A1, “Somatostatin analogs for preventing NSAID-induced ulcers” (SANDOZ LTD, priority 1994, dated 1995) are described below.

The data set is described as follows: Tolerability after i.p. injection. In kind it is in vivo. The note with it: i.p. injection at 100 mg/kg animal body. From the text:
Compounds of formula I are well tolerated at dosages required for use in accordance with the present invention.

With `C[C@@H](O)[C@@H]1NC(=O)[C@H](CCCCN)NC(=O)[C@@H](Cc2c[nH]c3ccccc23)NC(=O)[C@H](Cc2ccccc2)NC(=O)[C@@H](NC(=O)[C@H](N)Cc2ccccc2)CSSC[C@@H](C(=O)N[C@H](CO)[C@@H](C)O)NC1=O` [octreotide], the “increase in GOT” value was “no increase in GOT” and the lethality result was “no increase in GOT or any lethality”.
